Assay results: patent US9657081B2, “Inhibiting peptides derived from triggering receptor expressed on myeloid cells-1 (TREM-1) TREM-like transcript 1 (TLT-1) for treatment of cardiovascular diseases” (INSERM (Institut National de la Sante et de la Recherche …, priority 2013, dated 2017)

Experiments:
[1] = tested on: TREM-1; test: Monkey model of endotoxin (LPS) infusion: blood pressure monitoring; assay type: in vivo, cynomolgus monkey (Macaca fascicularis)
Description: Male cynomolgus monkeys (Macaca fascicularis) (2.8 to 3.5 kg, 24 months old, Le Tamarinier, La Route Royale, Tamarin, Mauritius) were used. Animals were fasted the day before LPS challenge but with full access to water. CIToxLAB France Ethical Committee (CEC) reviewed and approved all study plans (Nr CEC: 02221).
Vital signs and weight were recorded the day before LPS challenge. The next morning, baseline clinical laboratory samples were collected, and a baseline set of vital signs was recorded. The drug was administered into the cephalic or saphenous vein via a Teflon catheter. Contralateral vein was used for LPS administration.
Monkeys were randomized to receive LR12 or placebo (n=6 per group). An additional group of 4 was constituted to only receive vehicle (NaCl 0.9%) infusion and served as the control group.
At time point 0, a 15 mins intravenous infusion of LR12 or placebo solution was begun, at the rate of 12 mL/h (5 mg/kg, 10 mins, 2 mL), delivered by a calibrated syringe pump (Harvard Apparatus). A continuous infusion was then administered for further 8 hours at the rate of 2 mL/h (1 mg/kg/h, 8 hours, 16 mL). Just before treatment infusion, an intravenous bolus of LPS (10 μg/kg) was administered over the course of a 10 mins period into the contralateral catheter. Animals remained awake in an upright position in a restraint chairs and continued to fast from food for the whole study duration.
Pulse rate, and blood pressure were monitored every 15 mins for 1 hour, then every 30 mins for 7 hours.

[2] = tested on: TREM-1; test: Rat model of myocardial ischemia-reperfusion, physiologic parameters and micro-TEP imaging; assay type: in vivo
Description: Adult male Wistar rats (360-380 g) were used. All rats were anaesthetized with ketamine (100 mg/kg, intramuscularly) and mechanically ventilated. After a left thoracotomy, the left coronary artery was identified and ligated with a 6-0 prolene surgical suture. LAD occlusion was confirmed by a change in myocardial color from red to white in the ischemia area (Left ventricle). The chest was closed and the skin was sutured with 6-0 silk. The animals returned to their cage where they were supervised until their complete recovery. The postoperative mortality rate of all rats was 20%.
After surgical LAD occlusion, importance of ischemic area was evaluated by micro-TEP imaging. Animals were then randomized to receive peptide (5 mg/kg) every 24 h for 5 days or placebo (vehicle).
A further evaluation was performed at 6 weeks by micro-TEP imaging and conductance catheter (Millar) in order to study the treatment effect on myocardial remodeling and myocardial function.
Animals received same surgery than in permanent ischemia, but with reperfusion of ischemic area by release of the LAD ligation after 60 minutes of ischemia. The same protocol as described above was then applied.
In all animals, approximately 70 MBq of ^18F-FDG (in a 0.3-0.5 ml volume) was injected intravenously and under a short anaesthesia (1.5-2.5% of isoflurane inhalation) 60 min prior to initiating PET recording. Recording was acquired in list mode under continuous anaesthesia by isoflurane, using a dedicated small animal PET system (Inveon, Siemens, Knoxville, Tenn., USA). The animals were positioned in the prone position and placed on a heating pad to maintain a body temperature within the normal range. The animals were connected to a standard ECG monitor by three electrodes placed on the inner surfaces of limb extremities. Recording times were 20 min for 18F emission and 6 min for 57Co transmission. The coincidence timing window was set to 3.4 ns and the energy window between 350 and 650 keV. Images were reconstructed in 16 cardiac intervals, providing a temporal resolution of 11-15 ms for common heart rate values. Under these conditions, the axial spatial resolution was less than 1.5 mm. In addition, on LV rat phantoms obtained by a stereolithography process, a precise determination of the actual cavity volumes was provided by FDG PET images above the level of 100 μl corresponding to the lower limit for the LV endsystolic volume in adult.
To investigate the role of TREM-1- and TLT-1-derived peptides in a more relevant model of MI, we performed a transient coronary artery ligation (ischemia-reperfusion model: IR) in rats. After randomisation, animals were then imaged under anaesthesia (micro-TEP) and administered with TREM-1- and TLT-1-derived peptides (3 mg/kg daily for 5 days i.p.) or LR12-scrambled peptide. Imaging was then repeated at 6 weeks before we studied cardiac function by using a conductance catheter (Millar).

How did the “arterial pressure / hypotension after LPS challenge” value ([1]; LPS 10 μg/kg) turn out when “LQEEDAGEYGCM (listed as Homo sapiens) [TLT1-LR12]” was run?
The value was “never went hypotensive”.

And the “Heart rate after LPS injection” value ([1]; LPS 10 μg/kg, 5 mg/kg then 1 mg/kg/h for 8 hours i.v.)?
The value was “no effects”.

And the “body temperature increase after LPS, difference between placebo (LR12scr) and LR12-treated animals” value ([1]; between H1 and H2)?
Its value is “not significant”.

What about the Body weight ([2]; Baseline) of the same sequence?
The Body weight was 391 ± 9 g.

What about the EDV ([2]; Baseline) of the same sequence?
Its EDV is 511 ± 55 µL.

And the EF ([2]; Baseline)?
Its EF is 47 ± 6%.

What about the ESV ([2]; Baseline) of the same sequence?
The ESV was 251 ± 75 µL.

And the Heart rate ([2]; Baseline)?
The Heart rate was 343 ± 43 bpm.

And the “MI Areas” value ([2]; Baseline)?
The value was 41 ± 20 % of LV.

What about the Systolic blood pressure ([2]; Baseline) of the same sequence?
Its Systolic blood pressure is 134 ± 2 mmHg.

And the Body weight ([2]; Six weeks)?
Its Body weight is 439 ± 12 g.

What about the “Body weight, difference with baseline” value ([2]; Six weeks) of the same sequence?
Its value is 48 ± 10 g.

And the EDV ([2]; Six weeks)?
The EDV was 620 ± 34 µL.

And the “EDV, difference with baseline” value ([2]; Six weeks)?
The value was 109 ± 55 µL.

What about the EF ([2]; Six weeks) of the same sequence?
Its EF is 56 ± 5%.

What about the “EF, difference with baseline” value ([2]; Six weeks) of the same sequence?
The value was 9 ± 7%.

What about the ESV ([2]; Six weeks) of the same sequence?
Its ESV is 273 ± 47 µL.

What about the “ESV, difference with baseline” value ([2]; Six weeks) of the same sequence?
Its value is 22 ± 18 µL.

And the Heart rate ([2]; Six weeks)?
Its Heart rate is 370 ± 25 bpm.

What about the “Heart rate, difference with baseline” value ([2]; Six weeks) of the same sequence?
Its value is 27 ± 22 bpm.

What about the “MI Areas” value ([2]; Six weeks) of the same sequence?
The value was 3 ± 9 % of LV.

And the “MI Areas, difference with baseline” value ([2]; Six weeks)?
The value was −38 ± 8 % of LV.

What about the Systolic blood pressure ([2]; Six weeks) of the same sequence?
The Systolic blood pressure was 167 ± 6 mmHg.

What about the “Systolic blood pressure, difference with baseline” value ([2]; Six weeks) of the same sequence?
Its value is 33 ± 6 mmHg.
